Marks after values point to notes of the source that are not given here.
Columns and labels:
NASH model of B-DIO mice = test: Efficacy test in NASH model of B-DIO mice (HFD + CCL4); assay type: in vivo; conditions: for area proportion of lipid droplets in the liver (oil red O) compared with the model group G2: Day 26, result in words (FIG. 8); for liver fibrosis (Sirius red) compared with the model group G2: Day 26, result in words (FIG. 9)
From the text: An objective of this experiment was to evaluate the pharmacodynamics of compounds of the present invention by using an NASH model of B-DIO mice.
Five C57BL/6 mice on normal diet were assigned to an experimental group G1, and 25 B-DIO mice were randomly assigned to five experimental groups according to the body weight, with 5 mice in each group.
The day of grouping was Day-1, intraperitoneal injection was started on Day 0 in the groups G2-G6 for CCL4 modeling, the concentration of a modeling agent is 0.2 µl/g, the modeling frequency was twice a week, and administration was started on Day 0.
The body weight was measured twice a week after grouping. At the end of the experiment (Day 26), the mice were fasted for 4 h, and non-anticoagulated blood of the mice in the groups G1-G6 was collected and centrifuged, and a serum was taken for blood biochemical testing. Livers in the groups G1-G6 were collected and weighed, 20 mg of the liver was weighed for determination of TC and TG, and the remaining liver was placed in formalin for fixation for pathological observation.

THRβ = target: T1, THRβ (Homo sapiens, UniProt P10828); test: HTRF test of agonist-induced SRC3-2 coactivator peptide recruitment to THRβ-LBD; assay type: biochemical
T1 sequence (P10828 217-461 limits assumed): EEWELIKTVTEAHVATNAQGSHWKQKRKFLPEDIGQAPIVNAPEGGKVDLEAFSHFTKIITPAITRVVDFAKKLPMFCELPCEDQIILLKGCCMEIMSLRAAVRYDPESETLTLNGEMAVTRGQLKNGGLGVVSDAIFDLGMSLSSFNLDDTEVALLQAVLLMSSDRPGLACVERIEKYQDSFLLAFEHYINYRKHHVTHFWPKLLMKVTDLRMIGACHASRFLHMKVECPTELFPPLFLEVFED
Method: (§1) 1. Experiment of binding of compounds to THRβ and THRα
(§2) Test principle: The effect of test compounds on THRβ and THRα was tested by using a method of HTRF. An MAb Anti GST-Eu cryptate antibody binds to GST-tagged THRα-LBD (or THRβ-LBD), while Streptavidin-XL665 binds to a biotin-labeled SRC3-2 coactivator peptide. […] At the same time, the resulting decrease in the distance between XL665-labeled SRC3-2 and an Eu-anti-GST antibody increases a THRFRET signal. The agonistic capacity at this target was assessed by the effect of compounds on the activity of THRα-LBD (THRβ-LBD) at different concentrations.
Test method: THRβ test procedures:
(§3) • (1) a 1×reaction solution was prepared. • (2) Preparation of compounds: the compound test starting concentration was 20 µM, 3-fold dilution was performed, 10 concentrations were set, and duplicate testing was set for each concentration. 100-fold dilution was performed in a 384-well Source plate to a corresponding solution with a final concentration, and then 200 nL of the solution was transferred to a 384-well reaction plate with Echo550 to be tested. 200 nL of 100% DMSO and a test article were respectively transferred to Min and Max wells. • (3) A 2×protein solution was prepared from the 1×reaction solution. • (4) A 4×SRC3-2 solution was prepared from the 1×reaction solution. • (5) A mixed solution of 4×GST-Eu cryptate and XL665 was prepared from the 1×reaction solution. • (6) 10 µl of the 2×protein solution was added to each well of the reaction plate, centrifugation was performed at 1000 rpm for 1 min, and incubation was performed at room temperature for 30 min. • (7) 5 µl of the 4×SRC3-2 solution was added to each well of the reaction plate, and centrifugation was performed at 1000 rpm for 1 min. • (8) 5 µL of the mixed solution of 4×GST-Eu cryptate and XL665 was added to each well of the reaction plate, centrifugation was performed at 1000 rpm for 1 min, and incubation was performed at 25°C. • (9) A fluorescence signal was read by using EnVision.

THRα = THRα (Homo sapiens, UniProt P10827); test: HTRF test of agonist-induced SRC3-2 coactivator peptide recruitment to THRα-LBD; assay type: biochemical
Method: as §1, §2, §3
THRα test procedures were the same as above.

[1] = In vivo pharmacokinetic study of elimination phase half-life after single IV bolus; set-up: species or system Sprague Dawley rats; conditions: rat, blood, iv, I.V bolus, 5 mg/kg, rats, read-out: Elimination phase half-life (T1/2) (converted)
Method: Blood samples were collected from animals (IV group) before administration and at time points of 0.083 h, 0.25 h, 0.5 h, 1 h, 2 h, 4 h, 8 h, and 24 h after the end of administration. • Sample treatment: prior to blood collection, a centrifuge tube with 10 µl of EDTA-K2 and 1.2 mL of 50% acetonitrile-DMSO (a volume ratio of whole blood to 50% acetonitrile-DMSO is approximately 1:4) was placed in an ice box filled with crushed ice. The collected blood was added to the centrifuge tube, vortexed for at least 5 min, and then temporarily stored and transported in the ice box filled with crushed ice; and the blood was centrifuged at 12,000 g for 10 min at 4°C, wherein centrifugation was completed within 1 h after blood collection. A whole blood supernatant after centrifugation was transferred to a newly labeled tube, and transferred to -60°C or below for storage for analytical testing.

[2] = liver, Day 26, 0.3 mg/kg I.G. Q.D., HFD+CCL4, mean±standard error
[3] = liver, Day 26, 1 mg/kg I.G. Q.D., HFD+CCL4, mean±standard error
[4] = liver, Day 26, 2 mg/kg I.G. Q.D., HFD+CCL4, mean±standard error
[5] = serum, Day 26, 1 mg/kg I.G. Q.D., HFD+CCL4, mean±standard error

THRα, sequence (P10827 148-410 isoform P10827-2 limits assumed, other chains not shown): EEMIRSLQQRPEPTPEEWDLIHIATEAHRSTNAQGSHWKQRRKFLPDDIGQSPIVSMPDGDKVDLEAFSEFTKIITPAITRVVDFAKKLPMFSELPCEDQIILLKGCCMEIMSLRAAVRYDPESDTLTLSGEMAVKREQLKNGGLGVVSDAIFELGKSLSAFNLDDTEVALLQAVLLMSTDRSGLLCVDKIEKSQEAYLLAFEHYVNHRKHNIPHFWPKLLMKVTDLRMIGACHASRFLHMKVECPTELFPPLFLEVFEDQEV

## [2H]C([2H])([2H])C(c1c(C)c(Oc2c(Cl)cc(-n3nc(CF)c(=O)[nH]c3=O)cc2Cl)n[nH]c1=O)C([2H])([2H])[2H] [Compound 6]
NASH model of B-DIO mice; G4, 0.3 mg/kg
  area proportion of lipid droplets in the liver (oil red O) compared with the model group G2: decreased significantly
  liver fibrosis (Sirius red) compared with the model group G2: certain improvement effects on liver fibrosis
NASH model of B-DIO mice; G4-G6 (0.3, 1, 2 mg/kg) versus Resmetirom 3 mg/kg, result in words
  effects of reducing liver fat accumulation and inhibiting liver fibroplasia compared with Resmetirom (G3): better effects of reducing liver fat accumulation and inhibiting liver fibroplasia than Resmetirom
NASH model of B-DIO mice; G5, 1 mg/kg
  area proportion of lipid droplets in the liver (oil red O) compared with the model group G2: decreased significantly
  liver fibrosis (Sirius red) compared with the model group G2: certain improvement effects on liver fibrosis
NASH model of B-DIO mice; G6, 2 mg/kg
  area proportion of lipid droplets in the liver (oil red O) compared with the model group G2: decreased significantly
  liver fibrosis (Sirius red) compared with the model group G2: certain improvement effects on liver fibrosis
NASH model of B-DIO mice; group G4, 0.3 mg/kg, Day 26
  decrease of liver TC compared with the model group G2: 24.9%
NASH model of B-DIO mice; group G6, 2 mg/kg, Day 26
  decrease of liver TG compared with the model group G2: 35.9%
NASH model of B-DIO mice; [2]
  TC: 46.76 ± 1.53 µmol/g
  TG: 59.02 ± 2.79 µmol/g
NASH model of B-DIO mice; [3]
  TC: 46.35 ± 1.39 µmol/g
  TG: 54.34 ± 2.45 µmol/g
NASH model of B-DIO mice; [4]
  TC: 44.99 ± 1.87 µmol/g
  TG: 54.34 ± 3.54 µmol/g
NASH model of B-DIO mice; serum, Day 26, 0.3 mg/kg I.G. Q.D., HFD+CCL4, mean±standard error
  TG: 1.03 ± 0.06 mM
NASH model of B-DIO mice; [5]
  ALT (U/L): 1080.58±88.36 U/L
  AST (U/L): 501.72±42.35* *** U/L
  TG: 1.06 ± 0.07 mM
NASH model of B-DIO mice; serum, Day 26, 2 mg/kg I.G. Q.D., HFD+CCL4, mean±standard error
  TG: 1.06 ± 0.09 mM
THRβ; HTRF, starting concentration 20 µM, 3-fold dilution, 10 concentrations, duplicate, read-out: THRβ (EC50)
  EC50: 6.5 nM
THRβ; result in words
  agonistic activity on THRβ compared with Resmetirom: significantly better than that of Resmetirom
  selectivity of agonistic effect for THRβ over THRα: selective agonistic effects on THRβ
THRα; HTRF, starting concentration 20 µM, 3-fold dilution, 10 concentrations, duplicate
  EC50: > 5000 nM
THRα; result in words
  agonistic activity on THRα: weak agonistic activity on THRα
[1]
  half-life: 7.8 h

Reference: EP4763841A1, “PYRIDAZINONE COMPOUND AND USE THEREOF” (Xi'an Xintong Pharmaceutical Research Co., Ltd., priority 2023, dated 2025)
